We go through nine compounds from publication PMC2728345 (Toxicology and applied pharmacology, 2009).

Where a chain is given by its changes, count along the chain named. “Also recorded” adds a separate entry of the source.

Data set [1] concerns the target carboxylesterase HCE2 (Homo sapiens, UniProt O00748). In words: Hydrolysis of pyrethroids by recombinant HCE2. Type of data set: in vitro ADME. The following applies: for preference for hydrolysis by HCE2 over HCE1: recombinant HCE2 vs HCE1 lysates, Tris-HCl pH 7.4.
For data set [2], the system named is CYP3A4. Briefly: CYP3A4 expression in human primary hepatocytes. The following applies: 10 µM, 24 h; for induction of CYP3A4 mRNA: four donors.
Data set [3] deals with T1, human PXR (Homo sapiens, UniProt O75469).
T1 sequence (O75469 1-434): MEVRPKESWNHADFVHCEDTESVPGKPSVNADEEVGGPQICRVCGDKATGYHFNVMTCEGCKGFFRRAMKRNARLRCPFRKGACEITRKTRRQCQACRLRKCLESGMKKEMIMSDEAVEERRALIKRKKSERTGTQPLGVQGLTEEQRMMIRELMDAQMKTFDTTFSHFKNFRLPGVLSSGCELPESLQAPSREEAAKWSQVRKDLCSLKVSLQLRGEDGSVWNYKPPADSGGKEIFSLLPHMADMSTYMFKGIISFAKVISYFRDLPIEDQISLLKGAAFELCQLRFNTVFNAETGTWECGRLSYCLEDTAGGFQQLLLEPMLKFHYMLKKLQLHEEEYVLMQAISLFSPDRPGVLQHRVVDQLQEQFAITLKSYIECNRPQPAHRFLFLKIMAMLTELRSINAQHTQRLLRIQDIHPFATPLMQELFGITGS
Briefly: Activation of human PXR in hPXR-HRE cells transfected with HCE1, HCE2 or vector.

The conditions of data set [4]: for hydrolysis by pooled human liver microsomes (rate group / extent, in words): 50 µg protein, pyrethroid 200 µM mixed with equal volume, Tris-HCl pH 7.4, 37°C.
In data set [5] the test system is CYP3A4. Briefly: Metabolism of pyrethroids by recombinant CYP3A4. The following applies: Supersomes 5 pmol P450, pyrethroid 50 µM, NRS, 37°C.
For data set [6], the target named is T1, human PXR. Briefly: Activation of human PXR in stable line hPXR-HRE. The following applies: 10 µM, 24 h, ratio over DMSO.
Data set [7] concerns the target T2, rat PXR (Rattus norvegicus, UniProt Q9R1A7).
T2 sequence (Q9R1A7 1-431): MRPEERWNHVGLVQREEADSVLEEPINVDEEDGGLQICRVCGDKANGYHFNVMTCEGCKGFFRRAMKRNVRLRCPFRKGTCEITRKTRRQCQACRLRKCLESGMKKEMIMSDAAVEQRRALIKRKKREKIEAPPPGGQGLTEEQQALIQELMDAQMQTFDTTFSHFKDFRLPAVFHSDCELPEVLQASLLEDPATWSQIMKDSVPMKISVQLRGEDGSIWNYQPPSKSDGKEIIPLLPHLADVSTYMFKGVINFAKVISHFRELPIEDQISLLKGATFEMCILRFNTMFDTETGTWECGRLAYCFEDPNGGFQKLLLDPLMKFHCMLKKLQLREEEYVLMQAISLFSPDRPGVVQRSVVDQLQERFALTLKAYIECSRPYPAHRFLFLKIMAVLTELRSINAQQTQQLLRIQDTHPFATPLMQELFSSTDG
In words: Activation of rat PXR, cotransfection with CYP3A4-DP-Luc in HepG2. To be noted: 24 h.

Data set [8] addresses T3, carboxylesterase HCE1 (Homo sapiens, UniProt P23141).
T3 sequence (P23141 18-567): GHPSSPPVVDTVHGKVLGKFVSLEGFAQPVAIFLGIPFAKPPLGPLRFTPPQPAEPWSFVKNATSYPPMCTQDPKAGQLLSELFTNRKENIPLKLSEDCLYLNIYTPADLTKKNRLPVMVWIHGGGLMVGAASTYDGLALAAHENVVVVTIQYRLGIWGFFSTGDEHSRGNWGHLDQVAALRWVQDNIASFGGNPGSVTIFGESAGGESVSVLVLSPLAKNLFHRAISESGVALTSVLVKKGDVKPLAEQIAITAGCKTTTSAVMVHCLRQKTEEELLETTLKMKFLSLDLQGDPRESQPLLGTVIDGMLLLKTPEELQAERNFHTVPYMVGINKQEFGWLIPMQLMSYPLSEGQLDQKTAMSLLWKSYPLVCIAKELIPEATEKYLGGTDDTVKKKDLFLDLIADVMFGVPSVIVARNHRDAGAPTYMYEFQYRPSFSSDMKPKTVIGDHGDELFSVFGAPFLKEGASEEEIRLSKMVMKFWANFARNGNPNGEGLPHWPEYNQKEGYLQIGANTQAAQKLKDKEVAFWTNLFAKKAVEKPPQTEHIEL
In words: Hydrolysis of pyrethroids by recombinant HCE1. Type of data set: in vitro ADME. The following applies: for preference for hydrolysis by HCE1 over HCE2 (words): recombinant HCE1 vs HCE2 lysates, Tris-HCl pH 7.4.

Data set [9] is classed as in vitro ADME, human. The following applies: ten individual microsomal samples, 100 µM bioallethrin, 30 min.
Data set [10] has as its system rats or mice. The following applies: in vivo, po; cited from earlier work.
Data set [11] concerns the target T4, human PXR variant L412I (Homo sapiens, UniProt O75469, L412I).
T4 sequence (O75469 1-434 L412I): T1 sequence (O75469 1-434) with L412I
The following applies: HepG2 cotransfection, 10 µM, 24 h.

Data set [12] addresses T5, human PXR variant S208F (Homo sapiens, UniProt O75469, S208F).
T5 sequence (O75469 1-434 S208F): T1 sequence (O75469 1-434) with S208F
The following applies: HepG2 cotransfection, 10 µM, 24 h; words: compared with wild-type PXR.

Data set [13] has as its system CYP3A4. In words: CYP3A4 mRNA in cell lines HepG2, Hop92 and LS180. The class given is cell-based, human. The following applies: 24 h.

Chain of carboxylesterase HCE2 (O00748 27-559): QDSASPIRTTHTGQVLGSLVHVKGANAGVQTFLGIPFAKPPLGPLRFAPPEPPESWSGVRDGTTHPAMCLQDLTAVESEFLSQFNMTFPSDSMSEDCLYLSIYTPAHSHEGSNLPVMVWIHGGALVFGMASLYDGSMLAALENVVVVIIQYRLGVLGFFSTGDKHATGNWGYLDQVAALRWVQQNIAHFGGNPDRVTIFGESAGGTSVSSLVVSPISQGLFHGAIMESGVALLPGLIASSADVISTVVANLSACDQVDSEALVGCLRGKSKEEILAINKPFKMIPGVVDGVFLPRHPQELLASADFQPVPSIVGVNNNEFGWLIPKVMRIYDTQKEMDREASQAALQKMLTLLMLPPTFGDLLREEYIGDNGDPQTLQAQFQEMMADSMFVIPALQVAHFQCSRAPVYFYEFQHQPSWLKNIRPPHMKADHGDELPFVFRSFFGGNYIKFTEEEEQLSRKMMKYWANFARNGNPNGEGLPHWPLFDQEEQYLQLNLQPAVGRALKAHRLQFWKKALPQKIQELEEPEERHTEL

Consider `CC(C)=CC1C(C(=O)OCN2C(=O)C3=C(CCCC3)C2=O)C1(C)C` (stereo not drawn) [Tetramethrin], for which, in [1], the “preference for hydrolysis by HCE2 over HCE1” value (shortened to “preference … over HCE1”) is listed as “HCE2 preferably hydrolyzed; also recorded: slightly more active than HCE1”. In [2], the “CYP3A4 protein (Western blotting)” value is listed as “slight increase” and the “induction of CYP3A4 mRNA” value is recorded as “relatively weaker inducers; also recorded: minimal induction; also recorded: least induction; also recorded: weakest CYP3A4 inducer”. In addition, in [3] (HCE1 co-transfected cells, 0.5-10 µM), the “lowest concentration causing significant activation of PXR, HCE1” value was 5 µM. Moreover, the “lowest concentration causing significant activation of PXR, HCE2” value in data set [3] (HCE2-cotransfected cells, 0.5-10 µM) is above 10 µM. Moreover, the “lowest concentration causing significant activation of PXR, vector” value in data set [3] (cells cotransfected by the vector, 0.5-10 µM) was determined as 1 µM. For the same compound, in [3] (hPXR-HRE cells transfected with HCE1 or HCE2 vs vector, 10 µM), the “effect of carboxylesterase cotransfection on PXR activation” value was “markedly decreased”. Further, the “decrease in PXR activation, HCE1 versus HCE2 cotransfection” value in data set [3] (hPXR-HRE cells, 10 µM) was “decreased more PXR activation than HCE1”. For the same compound, in data set [4] (pooled human liver microsomes), the “hydrolysis rate relative to tau-fluvalinate” value was 9 times. Moreover, in data set [5], the “extent of metabolism by CYP3A4” value is given as “greatest extent”.

As to `CC1(C)C(C=C(Cl)Cl)C1C(=O)OCc1cccc(Oc2ccccc2)c1` (stereo not drawn) [Permethrin], the “preference … over HCE1” value in data set [1] is reported as “HCE2 preferably hydrolyzed”. Also, in data set [6], the “activation of human PXR” value was “relatively weak activators of human PXR”. The “activation of rat PXR” value in data set [7] is listed as “efficaciously activated rat PXR”.

Turning to `C=CCC1=C(C)C(OC(=O)[C@@H]2[C@@H](C=C(C)C)C2(C)C)CC1=O` (stereo partly drawn) [Bioallethrin], the “activation of human PXR” value in [6] was “activated PXR with less potency”. The “activation of rat PXR” value in data set [7] was found to be 2.0 fold. The “induction of CYP3A4 mRNA” value in data set [2] is given as “relatively weaker inducers; also recorded: least induction”. Moreover, the “preference for hydrolysis by HCE1 over HCE2 (words)” value (from here on “preference … over HCE2 (words)”) in data set [8] is given as “HCE1 preferably hydrolyzed”. Further, in data set [4], the “hydrolysis by pooled human liver microsomes (rate group / extent, in words)” value (“hydrolysis … (rate group / extent, in words)” for short) is on record as “rapidly hydrolyzed”. In [4] (pooled human liver microsomes), the “hydrolysis rate relative to bifenthrin” value is given as 8 times. In addition, the “extent of metabolism by CYP3A4” value in data set [5] is on record as “greatest extent”. The “variation of overall hydrolysis among individual samples” value in data set [9] is given as ~ 2 fold.

For `Cc1c(COC(=O)[C@@H]2[C@H](/C=C(\Cl)C(F)(F)F)C2(C)C)cccc1-c1ccccc1` (racemic) [Bifenthrin], the “preference … over HCE1” value in data set [1] is listed as “HCE2 preferably hydrolyzed”. The “activation of rat PXR” value in data set [7] is reported as “efficaciously activated rat PXR”. In data set [2], the “induction of CYP3A4 mRNA” value is listed as at least 2.5 fold.

As to `CC(C)[C@@H](Nc1ccc(C(F)(F)F)cc1Cl)C(=O)OC(C#N)c1cccc(Oc2ccccc2)c1` (stereo partly drawn) [tau-Fluvalinate], in [1], the “preference … over HCE1” value is “HCE2 preferably hydrolyzed”. Further, the “activation of human PXR” value in [6] was 3.5 fold. For the same compound, the “hydrolysis … (rate group / extent, in words)” value in data set [4] is on record as “low rate”. The “extent of metabolism by CYP3A4” value in data set [5] is reported as “least extent”.

As usually defined, the LD50 is the dose expected to kill half of the subjects tested. On to `CC(C)=C[C@@H]1[C@@H](C(=O)OCc2coc(Cc3ccccc3)c2)C1(C)C` [Bioresmethrin], for which, in [6], the “activation of human PXR” value was determined as 1.5 fold. The “induction of CYP3A4 mRNA” value in data set [2] is “relatively weaker inducers; also recorded: least induction”. For the same compound, the “hydrolysis by HCE1 relative to esfenvalerate” value in data set [8] (recombinant HCE1) came to 7 times. For the same compound, the “preference … over HCE2 (words)” value in data set [8] is on record as “hydrolyzed overwhelmingly by HCE1”; in [8] (listed as bioresmethrin), “HCE1 preferably hydrolyzed”. Also, the LD50 in [10] is 1244 mg/kg. For the same compound, the “hydrolysis … (rate group / extent, in words)” value in data set [4] is “highest extent”.

Regarding `CC1(C)[C@H](C(=O)OCc2cccc(Oc3ccccc3)c2)[C@@H]1C=C(Cl)Cl` [Per-2, cis-permethrin], the “hydrolysis by HCE2 relative to HCE1” value in data set [1] (recombinant enzymes) turned out to be 7 times. Further, in data set [4], the “hydrolysis … (rate group / extent, in words)” value was “low rate”.

Take `CC(C)[C@H](C(=O)O[C@H](C#N)c1cccc(Oc2ccccc2)c1)c1ccc(Cl)cc1` [Esfenvalerate]: in [11], the “activation of PXR variant L412I compared with wild-type PXR” value is reported as “less extent than the wild-type PXR”. The “induction of CYP3A4 mRNA” value in data set [2] is on record as at least 2.5 fold. Moreover, the “preference … over HCE2 (words)” value in data set [8] is on record as “HCE1 preferably hydrolyzed”. Further, the LD50 in data set [10] is reported as 325 mg/kg. In addition, in [4], the “hydrolysis … (rate group / extent, in words)” value is reported as “low rate”. The “activation of PXR variant S208F” value in [12] is “no differences”. For the same compound, in [13] (HepG2 cells, 0–10 µM), the “concentration dependence of CYP3A4 mRNA induction” value is recorded as “concentration-dependent manner” and the “lowest concentration with significant induction of CYP3A4 mRNA” value turned out to be 0.5 µM. Besides, the “induction of CYP3A4 mRNA in HepG2” value in data set [13] (HepG2 cells, 1 µM) is reported as “significant induction”. Moreover, the “induction of CYP3A4 mRNA in Hop92” value in data set [13] (Hop92 cells, 1 µM) is listed as “significant induction”. Besides, the “induction of CYP3A4 mRNA in LS180” value in data set [13] (LS180 cells, 1 µM) is reported as “significant induction”.

For `CC1(C)[C@H](C=C(Cl)Cl)[C@H]1C(=O)OCc1cccc(Oc2ccccc2)c1` [Per-1, trans-permethrin], the “preference … over HCE1” value in data set [1] is recorded as “comparably hydrolyzed by both enzymes”. Moreover, in [1] (recombinant enzymes), the “hydrolysis by HCE2 faster than by HCE1” value worked out at 15%. For the same compound, the “hydrolysis … (rate group / extent, in words)” value in data set [4] is listed as “high rate”.
